In PubChem BioAssay AID256 (DTP/NCI, 2004):
Several values for one entry are separate records, joined by “and”; a condition that tells them apart may be missing. Equal entries are not always repeated. Inconclusive results and toxic doses are left out. Rule for the calls: active = survival T/C of 150% or more; inactive = T/C below 125% in these data.

System: CD2F1 mice, L1210 leukemia ip, survival T/C
Assay: NCI In Vivo Anticancer Drug Screen. Data for tumor model L1210 Leukemia (intraperitoneal) in CD2F1 (CDF1) mice
Details: higher = longer survival
Procedure, shortened: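 Ratio T/C, where T is the treated-group value and C the vehicle-dosed control value, from mice implanted with a transplantable tumor.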

[1] = endpoint: mean survival time, dose: 100.0 mg/kg/injection, schedule: Q04DX003 (ip), vehicle: saline with Tween-80
[2] = endpoint: mean survival time, dose: 200.0 mg/kg/injection, schedule: Q04DX003 (ip), vehicle: saline with Tween-80
[3] = endpoint: mean survival time, dose: 400.0 mg/kg/injection, schedule: Q04DX003 (ip), vehicle: saline with Tween-80
[4] = endpoint: mean survival time, dose: 100.0 mg/kg/injection, schedule: Q01DX001 (ip), vehicle: saline with Tween-80
[5] = endpoint: mean survival time, dose: 200.0 mg/kg/injection, schedule: Q01DX001 (ip), vehicle: saline with Tween-80
[6] = endpoint: mean survival time, dose: 400.0 mg/kg/injection, schedule: Q01DX001 (ip), vehicle: saline with Tween-80
[7] = endpoint: mean survival time, dose: 100.0 mg/kg/injection, schedule: Q04DX003 (ip), vehicle: other
[8] = endpoint: mean survival time, dose: 200.0 mg/kg/injection, schedule: Q04DX003 (ip), vehicle: other
[9] = endpoint: mean survival time, dose: 400.0 mg/kg/injection, schedule: Q04DX003 (ip), vehicle: other
[10] = endpoint: mean survival time, dose: 100.0 mg/kg/injection, schedule: Q01DX009 (ip), vehicle: saline with Tween-80

Measured: T/C

[N-]=[N+]=C1C(=O)NC(=O)N2C3CC(O)C(COC12)O3 (stereo not drawn)
inactive: endpoint: mean survival time, dose: 75.0 mg/kg/injection, schedule: Q01DX009 (ip), vehicle: saline with Tween-80 106 % of control | endpoint: mean survival time, dose: 100.0 mg/kg/injection, schedule: Q01DX009 (ip), vehicle: saline sonified 114 % of control | [1] 101 % of control | endpoint: mean survival time, dose: 150.0 mg/kg/injection, schedule: Q01DX009 (ip), vehicle: saline with Tween-80 108 % of control | endpoint: mean survival time, dose: 200.0 mg/kg/injection, schedule: Q01DX009 (ip), vehicle: saline sonified 120 % of control | [2] 104 % of control | endpoint: mean survival time, dose: 300.0 mg/kg/injection, schedule: Q01DX009 (ip), vehicle: saline with Tween-80 112 % of control | endpoint: mean survival time, dose: 400.0 mg/kg/injection, schedule: Q01DX009 (ip), vehicle: saline sonified 121 % of control | [3] 108 % of control

CC[N+](CC)(CCOc1ccc(C(C)(C)CC(C)(C)C)cc1)Cc1ccccc1
inactive: endpoint: mean survival time, dose: 5.0 mg/kg/injection, schedule: Q04DX003 (ip), vehicle: saline 102 % of control

c1ccc(C2Cc3ccccc3C2=NC2CCCCC2)cc1 (stereo not drawn)
inactive: [4] 97 % of control | [5] 93 % of control | [6] 90 % of control

C/C(=N\Nc1nc2ccccc2s1)c1ccc2c(c1)Sc1ccccc1O2
inactive: endpoint: mean survival time, dose: 37.5 mg/kg/injection, schedule: Q01DX009 (ip), vehicle: saline 92 % of control | endpoint: mean survival time, dose: 75.0 mg/kg/injection, schedule: Q01DX009 (ip), vehicle: saline 95 % of control | endpoint: mean survival time, dose: 150.0 mg/kg/injection, schedule: Q01DX009 (ip), vehicle: saline 98 % of control

Nc1nc2c(ncn2-c2cccc(NC(=O)Nc3ccc(S(=O)(=O)F)c(Cl)c3)c2)c(=O)[nH]1 (tested in a mixture with another compound)
inactive: [4] 97 % of control | [5] 95 % of control

Cc1ccc(N)nc1[N+](=O)[O-]
inactive: endpoint: mean survival time, dose: 100.0 mg/kg/injection, schedule: Q01DX009 (ip), vehicle: other 100 % of control | [7] 102 % of control | endpoint: mean survival time, dose: 200.0 mg/kg/injection, schedule: Q01DX009 (ip), vehicle: other 96 % of control | [8] 96 % of control | endpoint: mean survival time, dose: 400.0 mg/kg/injection, schedule: Q01DX009 (ip), vehicle: other 100 % of control | [9] 96 % of control

COc1ccc(Nc2ccccc2Cl)c(C(=O)O)c1
inactive: [1] 98 % of control | [2] 102 % of control | [3] 102 % of control

CS(=O)(=O)OC[C@@H](O)[C@@H](O)COS(C)(=O)=O
inactive: endpoint: mean survival time, dose: 100.0 mg/kg/injection, schedule: Q04DX003 (ip), vehicle: saline sonified 94 % of control and 102 % of control | endpoint: mean survival time, dose: 200.0 mg/kg/injection, schedule: Q04DX003 (ip), vehicle: saline sonified 100 % of control and 108 % of control | endpoint: mean survival time, dose: 400.0 mg/kg/injection, schedule: Q04DX003 (ip), vehicle: saline sonified 97 % of control and 100 % of control

CCOC(=N)CNC(=O)c1ccccc1
inactive: endpoint: mean survival time, dose: 100.0 mg/kg/injection, schedule: Q04DX002 (ip), vehicle: saline with Tween-80 105 % of control | endpoint: mean survival time, dose: 200.0 mg/kg/injection, schedule: Q04DX002 (ip), vehicle: saline with Tween-80 98 % of control | endpoint: mean survival time, dose: 400.0 mg/kg/injection, schedule: Q04DX002 (ip), vehicle: saline with Tween-80 98 % of control

Cc1cn(C2CC(OS(C)(=O)=O)C(COC(c3ccccc3)(c3ccccc3)c3ccccc3)O2)c(=O)[nH]c1=O (stereo not drawn)
inactive: endpoint: mean survival time, dose: 12.5 mg/kg/injection, schedule: Q01DX005 (ip), vehicle: other 95 % of control | endpoint: mean survival time, dose: 25.0 mg/kg/injection, schedule: Q01DX005 (ip), vehicle: other 90 % of control | endpoint: mean survival time, dose: 50.0 mg/kg/injection, schedule: Q01DX005 (ip), vehicle: other 91 % of control | endpoint: mean survival time, dose: 200.0 mg/kg/injection, schedule: Q01DX005 (ip), vehicle: other 91 % of control

Clc1cc(Cl)c(OCC#CI)c(Cl)c1Cl
inactive: endpoint: mean survival time, dose: 50.0 mg/kg/injection, schedule: Q01DX001 (ip), vehicle: carboxymethylcellulose (CMC) 100 % of control | endpoint: mean survival time, dose: 100.0 mg/kg/injection, schedule: Q01DX001 (ip), vehicle: carboxymethylcellulose (CMC) 100 % of control | endpoint: mean survival time, dose: 200.0 mg/kg/injection, schedule: Q01DX001 (ip), vehicle: carboxymethylcellulose (CMC) 100 % of control | endpoint: mean survival time, dose: 400.0 mg/kg/injection, schedule: Q01DX001 (ip), vehicle: carboxymethylcellulose (CMC) 103 % of control

CNC(C)C(O)c1ccccc1 (stereo not drawn)
inactive: endpoint: mean survival time, dose: 50.0 mg/kg/injection, schedule: Q01DX009 (ip), vehicle: saline with Tween-80 100 % of control | [10] 97 % of control

Cc1cnc(Cl)c(Br)c1
inactive: [4] 96 % of control | [10] 104 % of control | [5] 101 % of control | endpoint: mean survival time, dose: 200.0 mg/kg/injection, schedule: Q01DX009 (ip), vehicle: saline with Tween-80 100 % of control | [6] 95 % of control | endpoint: mean survival time, dose: 400.0 mg/kg/injection, schedule: Q01DX009 (ip), vehicle: saline with Tween-80 106 % of control

Cc1ccc(S(=O)(=O)OC2CCCCCCCCCCC2=O)cc1 (stereo not drawn)
inactive: endpoint: mean survival time, dose: 50.0 mg/kg/injection, schedule: Q04DX003 (ip), vehicle: other 97 % of control | [7] 93 % of control and 95 % of control | [8] 93 % of control | [9] 95 % of control

C/C(=N\NC(=S)N1CC2CCC(CC2)C1)c1cccc(C)n1
inactive: endpoint: median survival time, dose: 3.12 mg/kg/injection, schedule: Q01DX005 (ip), vehicle: saline with Tween-80 103 % of control | endpoint: median survival time, dose: 6.25 mg/kg/injection, schedule: Q01DX005 (ip), vehicle: saline with Tween-80 108 % of control | endpoint: median survival time, dose: 12.5 mg/kg/injection, schedule: Q01DX005 (ip), vehicle: saline with Tween-80 119 % of control | endpoint: median survival time, dose: 25.0 mg/kg/injection, schedule: Q01DX005 (ip), vehicle: saline with Tween-80 102 % of control and 108 % of control

CCOc1ccc(NC2OC(CO)C(O)C(O)C2O)cc1 (stereo not drawn)
inactive: endpoint: mean survival time, dose: 100.0 mg/kg/injection, schedule: Q01DX001 (ip), vehicle: saline 100 % of control | endpoint: mean survival time, dose: 200.0 mg/kg/injection, schedule: Q01DX001 (ip), vehicle: saline 108 % of control

CN(C)CN1C(=O)S/C(=C2\C(=O)N(CN(C)C)c3ccccc32)C1=O
inactive: endpoint: median survival time, dose: 50.0 mg/kg/injection, schedule: Q01DX005 (ip), vehicle: Klucel (hydroxypropylcellulose) (HPC) 100 % of control | endpoint: median survival time, dose: 100.0 mg/kg/injection, schedule: Q01DX005 (ip), vehicle: Klucel (hydroxypropylcellulose) (HPC) 98 % of control | endpoint: median survival time, dose: 200.0 mg/kg/injection, schedule: Q01DX005 (ip), vehicle: Klucel (hydroxypropylcellulose) (HPC) 101 % of control

N#CC(C(=O)O)C1CCCCC1=O (stereo not drawn)
inactive: endpoint: median survival time, dose: 50.0 mg/kg/injection, schedule: Q04DX002 (ip), vehicle: saline with Tween-80 100 % of control | endpoint: median survival time, dose: 100.0 mg/kg/injection, schedule: Q04DX002 (ip), vehicle: saline with Tween-80 100 % of control | endpoint: median survival time, dose: 200.0 mg/kg/injection, schedule: Q04DX002 (ip), vehicle: saline with Tween-80 100 % of control

COC1OC(CO)C(O)C(O)C1O (stereo not drawn) (tested in a mixture with another compound)
inactive: [4] 90 % of control | [5] 90 % of control | [6] 92 % of control
